Test results published in patent publication US11440923B2, “Substituted macrocyclic indole derivatives” (Bayer Aktiengesellschaft, priority 2017, dated 2022).
Where a name gives a salt, the structure may show the parent alone. Read-outs that look alike come from different tables or passages of the source.

Experiments:
DMS-114 cells = experiment: Antiproliferation assay DMS-114 (Assay 7); assay type: cell-based; conditions: Homo sapiens, read-out: Antiproli DM-S114 IC50 median
Procedure, shortened: (§1)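 Cell proliferation was measured with CellTiter-Glo luminescence after 72 h compound exposure at 37 °C. A day 0 reference plate, read after overnight incubation, set the time-zero value. IC50s were calculated relative to day 0 (CI) and DMSO control (C0) values.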

MCL-1 = MCL-1 (Homo sapiens (Human), UniProt Q07820, K194A/K197A/R201A); experiment: Protein-compound interaction assay (SPR assay, Assay 9); assay type: binding; conditions: for Kd: KD (geometric mean), SPR, 25° C.; for koff: read-out: koff (geometric mean), SPR, 25° C.; for kon: read-out: kon (geometric mean), SPR, 25° C.
Sequence of MCL-1 (Q07820 whole entry K194A/K197A/R201A, looked up): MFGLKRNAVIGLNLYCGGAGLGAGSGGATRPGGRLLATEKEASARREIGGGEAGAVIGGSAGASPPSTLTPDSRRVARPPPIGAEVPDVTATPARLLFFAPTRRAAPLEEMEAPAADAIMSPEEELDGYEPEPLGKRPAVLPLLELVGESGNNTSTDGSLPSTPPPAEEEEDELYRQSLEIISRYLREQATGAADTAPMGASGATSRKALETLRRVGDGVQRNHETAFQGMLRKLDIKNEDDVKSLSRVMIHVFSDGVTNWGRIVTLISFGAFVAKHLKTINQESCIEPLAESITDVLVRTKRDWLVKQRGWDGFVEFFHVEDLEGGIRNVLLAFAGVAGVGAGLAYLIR

[1] = molecular target: MCL1 protein / biotinylated BIM BH3 peptide in RKO cells (Homo sapiens (Human), UniProt Q07820); experiment: PIxEL: protein-protein interaction in permeabilized cells by ELISA (Assay 5); assay type: cell-based; conditions: PIxEL IC50 (median)
Sequence of MCL1 protein / biotinylated BIM BH3 peptide in RKO cells (Q07820 whole entry): as the sequence (Q07820 whole entry K194A/K197A/R201A, looked up) above, with A194K, A197K, A201R counted along it
Procedure, shortened: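 Digitonin (0.002%)-permeabilized RKO cells in MEB buffer pH 7.5 were treated with compound (3-fold series, top 30 μM) plus 0.2 μM biotin-BIM BH3 peptide for 1 h at room temperature. Lysates were captured on anti-MCL1 ELISA plates and bound peptide read by streptavidin-HRP luminescence. IC50 came from signal normalized to no-compound and no-cell controls.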

SNU-389 cells = experiment: Antiproliferation assay SNU-389 (Assay 7); assay type: cell-based; conditions: 72 h, read-out: Antiproli SNU-389 IC50
Procedure, shortened: as §1

SNU-16 cells = experiment: Antiproliferation assay SNU-16 (Assay 7); assay type: cell-based; conditions: Homo sapiens, read-out: Antiproli SNU-16 IC50 median
Procedure, shortened: as §1

SK-MEL-2 cells = experiment: Antiproliferation assay SK-MEL-2 (Assay 7); assay type: cell-based; conditions: Homo sapiens, read-out: Antiproli SK-MEL-2 IC50 median
Procedure, shortened: as §1

IC50 (SNU-389 cells; CellTiter-Glo)	IC50 (SNU-16 cells; SNU-16, 72 h, CellTiter-Glo)	IC50 (SK-MEL-2 cells; SK-MEL-2, 72 h, CellTiter-Glo)	SMILES	IC50 (DMS-114 cells; DMS-114, 72 h)	Kd (MCL-1)	koff (MCL-1)	kon (MCL-1)	IC50 [1]	IC50 (SNU-389 cells)	IC50 (SNU-16 cells; SNU-16, 72 h)	IC50 (SK-MEL-2 cells; SK-MEL-2, 72 h)	IC50 (DMS-114 cells; DMS-114 cells, 72 h, CellTiter-Glo)
–	–	–	CCc1c2c(nn1C)C(CCC1CCOCC1)OCCCCn1c(C(=O)O)c(CCCOc3cccc4cc(F)ccc34)c3ccc(Cl)c-2c31 (single isomer, unassigned; enantiomer 1) [Example 63, (+)-4-chloro-3-ethyl-7-{3-[(6-fluoronaphthalen-1-yl)oxy]propyl}-2-methyl-15-[2-(oxan-4-yl)ethyl]-2,10,11,12,13,15-hexahydropyrazolo[4′,3′:9,10][1,6]oxazacycloundecino[8,7,6-hi]indole-8-carboxylic Acid—N-ethylethanamine Salt (Enantiomer 1)]	156 nM	1.4 nM	0.0016 s⁻¹	1.1e+06 M⁻¹ s⁻¹	14.2 nM	183 nM	276 nM	324 nM	–
133 nM	152 nM	170 nM	CCc1c2c(nn1C)C(CCC(C)(C)O)OCCCCn1c(C(=O)O)c(CCCOc3cccc4cc(F)ccc34)c3ccc(Cl)c-2c31 (single isomer, unassigned; enantiomer 1) [Example 75, (+)-4-chloro-3-ethyl-7-{3-[(6-fluoronaphthalen-1-yl)oxy]propyl}-15-(3-hydroxy-3-methylbutyl)-2-methyl-2,10,11,12,13,15-hexahydropyrazolo[4′,3′:9,10][1,6]oxazacycloundecino[8,7,6-hi]indole-8-carboxylic Acid—N-ethylethanamine Salt (Enantiomer 1)]	–	0.24 nM	0.0022 s⁻¹	9e+06 M⁻¹ s⁻¹	27.5 nM	–	–	–	77.4 nM
